The text below walks through data of US20220235032A1 (GENFLEET THERAPEUTICS (SHANGHAI) INC., priority 2019, published 2022).

pIC50: −log10 of the molar value.

One test has as its target T1, RIPK1 enzyme (Homo sapiens, UniProt Q13546).
T1 construct: purchased Eurofins 16-022
T1 sequence (Q13546 1-671): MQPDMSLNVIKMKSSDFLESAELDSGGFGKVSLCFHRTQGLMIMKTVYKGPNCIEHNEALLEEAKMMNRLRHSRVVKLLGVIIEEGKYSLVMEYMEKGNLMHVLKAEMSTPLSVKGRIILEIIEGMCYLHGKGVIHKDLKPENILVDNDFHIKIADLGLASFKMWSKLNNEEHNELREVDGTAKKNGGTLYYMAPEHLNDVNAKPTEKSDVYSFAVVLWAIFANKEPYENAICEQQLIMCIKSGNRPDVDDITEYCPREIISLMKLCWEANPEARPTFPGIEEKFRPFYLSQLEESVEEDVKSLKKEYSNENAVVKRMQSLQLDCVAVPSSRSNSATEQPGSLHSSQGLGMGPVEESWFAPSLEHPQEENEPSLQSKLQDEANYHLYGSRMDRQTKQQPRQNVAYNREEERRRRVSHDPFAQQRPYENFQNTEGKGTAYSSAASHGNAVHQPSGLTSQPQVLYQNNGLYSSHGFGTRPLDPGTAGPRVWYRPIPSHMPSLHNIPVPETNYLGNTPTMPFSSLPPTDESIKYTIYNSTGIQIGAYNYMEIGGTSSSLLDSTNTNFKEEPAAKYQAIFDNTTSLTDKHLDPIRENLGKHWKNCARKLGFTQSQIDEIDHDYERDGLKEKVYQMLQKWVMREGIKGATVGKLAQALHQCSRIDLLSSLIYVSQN
Put plainly: Inhibitory activity of the compounds against RIPK1 enzyme (P33-ATP, MBP substrate). Format: biochemical. The settings on record: 36 nM RIPK1, substrate MBP, 10 mM magnesium ion, P33-labeled ATP, 2 h room temperature; read-out: RIPK1 enzyme inhibitory activety IC50. How it is done:
The compound to be tested was dissolved in DMSO, and diluted in 3.16 folds with DMSO to a series of gradient concentrations. Then, the solution was diluted with MOPS buffer pH 7.0 to the final concentration. The resultant working solution was mixed with 36 nM RIPK1 (final concentration) and the substrate MBP homogeneously. Thereafter, 10 mM magnesium ion and P^33 isotopically labeled ATP were added for the reaction. After the reaction was carried out at room temperature for 2 h, phosphoric acid was added to terminate the reaction. The final reaction system was tested using a liquid scintillation counter after treatment. The […] for the tested result and a positive control group were converted to activity percentage. The activity percentage was plotted against the final concentration of respective compound using a 4-parameter fitting to obtain the inhibitory IC50 of the compound against RIPK1 enzyme.

A further test deals with U937 cells. Put plainly: Inhibitory activity against programmed necroptosis of U937 cells induced by TNF-α and Q-VD-Oph (CellTiter-Glo). Format: cell-based. The settings on record: Homo sapiens, U-937, 48 h, Celltiter-Glo survival rate. As for the experimental part:
The U937 cell strain which was used in the following Testing Examples was derived from ATCC, No.: CRL-1593.2, batch No.: 63479999, culture medium: RPMI-1640+10% FBS.
The compound to be tested was dissolved in DMSO, and diluted with DMSO to a series of gradient concentrations. The U937 cells were inoculated in a 384-well plate at 5000/well. The compound at respective concentration was added to each of the wells, and was mixed with the cells homogeneously. Human TNF-α and Q-VD-Oph were added simultaneously to induce programmed necroptosis of the cells. The cells were placed in the incubator at 37° C. and 5% CO2 for further culture of 48 h. Celltiter-Glo reagent was used for detection. After adequate pyrolysis reaction, the chemiluminescence readout value was recorded by a microplate reader. The survival rate was calculated from the detection results using the equation as follows: SR (%)=(RLU compound−RLU blank)/(RLU high control−RLU blank)×100%. The survival rate was plotted against the final concentration of respective compound using a 4-parameter fitting to calculate the inhibitory C50 of the compound against programmed necroptosis of cells induced by TNF-α.

Consider `COc1nccc(N2CC3CC(C(=O)N4N=CCC4c4ccccc4)CC3C2)n1` (stereo not shown) [Compound Z-13, (2-(2-methoxypyrimidin-4-yl)octahydrocyclopenta[c]pyrrol-5-yl)(5-phenyl-4,5-dihydro-1H-pyrazol-1-yl) ketone], for which the results for the pIC50 at RIPK1 enzyme and in the test on U937 cells were 7.20 and 6.84, respectively.

Regarding `N#Cc1cc(N2CC3CC(C(=O)N4N=CCC4c4ccccc4)CC3C2)ncn1` (stereo not shown) [Compound Z-72, 6-(5-(5-phenyl-4,5-dihydro-1H-pyrazole-1-carbonyl)hexahydrocyclopenta[C]pyrrol-2(1H)-yl)pyrimidine-4-carbonitrile], the pIC50 at RIPK1 enzyme is 6.77; with U937 cells, 7.52.
